Experimental data published in patent US6153645A, “Heterocycles as antimicrobial agents” (Cubist Pharmaceuticals, Inc., priority 1999, dated 2000).
Values after ≈ are worked out from the molar mass of the structure shown. Where two headings read alike, the source gives them in different places.

Tests used:
E.faecalis PheRS = molecular target: T1, E.faecalis PheRS (Enterococcus faecalis, UniProt Q836J6); assay: aaRS charging and trichloroacetic acid precipitation assay, IC50 determination; assay type: biochemical; details: 20 min preincubation at 25 C; Km concentrations of substrates; stereoisomers tested separately
T1 sequence (Q836J6 1-348): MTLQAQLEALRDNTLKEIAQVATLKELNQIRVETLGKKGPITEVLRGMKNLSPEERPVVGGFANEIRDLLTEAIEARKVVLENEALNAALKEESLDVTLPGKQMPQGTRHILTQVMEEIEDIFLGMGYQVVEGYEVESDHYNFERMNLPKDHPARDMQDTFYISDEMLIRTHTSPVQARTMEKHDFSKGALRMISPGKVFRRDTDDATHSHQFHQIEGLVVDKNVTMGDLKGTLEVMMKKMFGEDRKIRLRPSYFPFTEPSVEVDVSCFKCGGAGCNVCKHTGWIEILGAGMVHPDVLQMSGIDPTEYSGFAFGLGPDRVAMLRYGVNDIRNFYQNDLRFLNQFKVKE
T1 sequence (Q836J5 1-807 partner): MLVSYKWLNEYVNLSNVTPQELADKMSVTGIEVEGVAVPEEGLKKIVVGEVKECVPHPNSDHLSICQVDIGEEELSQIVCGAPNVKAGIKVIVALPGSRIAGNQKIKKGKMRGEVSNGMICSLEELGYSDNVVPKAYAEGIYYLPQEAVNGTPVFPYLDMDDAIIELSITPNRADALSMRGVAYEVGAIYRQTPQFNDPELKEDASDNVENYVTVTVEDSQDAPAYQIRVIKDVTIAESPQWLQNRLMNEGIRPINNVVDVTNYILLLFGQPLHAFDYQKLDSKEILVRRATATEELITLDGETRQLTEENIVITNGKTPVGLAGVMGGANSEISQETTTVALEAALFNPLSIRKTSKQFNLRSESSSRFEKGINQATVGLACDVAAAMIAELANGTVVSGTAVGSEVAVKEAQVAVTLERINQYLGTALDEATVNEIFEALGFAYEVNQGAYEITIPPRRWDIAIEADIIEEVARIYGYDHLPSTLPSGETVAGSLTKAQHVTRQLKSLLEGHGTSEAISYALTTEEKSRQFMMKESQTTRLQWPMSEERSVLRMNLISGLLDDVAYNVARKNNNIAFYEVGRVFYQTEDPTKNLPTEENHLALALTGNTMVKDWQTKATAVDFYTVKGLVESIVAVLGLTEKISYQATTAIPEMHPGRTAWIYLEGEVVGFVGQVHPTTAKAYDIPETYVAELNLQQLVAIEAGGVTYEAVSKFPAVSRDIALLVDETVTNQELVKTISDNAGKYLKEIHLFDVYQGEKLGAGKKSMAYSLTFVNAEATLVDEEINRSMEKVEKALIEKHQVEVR
Method: IC50 determinations for the aminoacyl-tRNA synthetases (aaRS) isolated from pathogen or HeLa cells were carried out using a modification of the aaRS charging and trichloroacetic acid precipitation assay described previously (see examples: D. Kern et. al., Biochemie, 61, 1257-1272 (1979) and J. Gilbart et. al. Antimicrobial Agents and Chemotherapy, 37(1), 32-38 (1993)). The aaRS enzymes were prepared via standard cloning and expression methods and partially purified or partially purified from pathogen and HeLa cell extracts. The activity of each aaRS enzyme was standardized as trichloroacetic acid precipitable counts (cpm) obtained at 10 minutes reaction time at Km concentrations of substrates. For practical purposes, the minimal acceptable value is approximately 2000 cpm per 10 minute reaction.
Test compounds were typically present as serial dilutions in concentration ranges of 0.35 nM to 35 μM. Test compound solutions were prepared by dissolving test compound in 100% dimethyl sulfoxide and diluting to the final concentration with 50 mM HEPES, pH 7.5. IC50 determinations were typically performed in duplicate with each experiment containing 4-8 concentrations of inhibitor along with two no inhibitor controls.
IC50 incubations were initiated by supplementing the preincubation mixture to a final assay concentration of 10 mM MgCl2, 30 mM KCl, 10 mM KF, 50 mM HEPES (pH 7.5), […], 2-20 μM [^3 H] amino acid, and 90-180 μM crude tRNA in a final volume of 35 microliters. The reaction was incubated at 25° C. for 5-20 minutes. At specified time points a 15 microliter aliquot was removed and added to a well of a Millipore filtration plate (Multiscreen-FB, MAFB NOB 10) containing 100 microliters of cold 5% (wt/vol) trichloroacetic acid. Trichloroacetic acid precipitable material was collected by filtration on Millipore Multiscreen filtration station, washed twice with cold 5% trichloroacetic acid, twice with water, and dried. Plates were typically allowed to air dry for several hours or they were baked at 50° C. in a vacuum oven for 30 minutes. The radioactivity on the dried plates was quantitated by the addition of Packard Microscint-20 to the wells and counting with a Packard TopCount scintillation counter.
Inhibitor activity was typically reported as a percentage of the control aaRS activity. The IC50 value was determined by plotting per cent activity versus compound concentration in the assay and identifying the concentration at which 50% of the activity was remaining.
Stereoisomers are tested separately and referred to by the suffix a-d.

S.aureus = assay: Whole cell antimicrobial screen (MIC, NCCLS microdilution); assay type: cell-based; details: for MIC: Staphylococcus aureus
Method: Compounds were tested for antimicrobial activity against a panel of organisms according to standard procedures described by the National Committee for Clinical Laboratory Standards (NCCLS document M7-A3, Vol. 13, No. 25, 1993/NCCLS document M27-P, Vol. 12, No. 25, 1992). Compounds were dissolved in 100% DMSO and were diluted to the final reaction concentration (0.1 μg/ml-500 μg/ml) in microbial growth media. In all cases the final concentration of DMSO incubated with cells is less than or equal to 1%. For minimum inhibitory concentration (MIC) calculations, 2-fold dilutions of compounds were added to wells of a microtiter plate containing 5×10^4 bacteria or fungal cells in a final volume of 200 lambda of an appropriate media (Mueller-Hinton Broth; Haemophilus Test Media; Mueller-Hinton Broth+5% Sheep Blood; or […]). Plates were incubated overnight at an appropriate temperature (30° C.-37° C.) and optical densities (measure of cell growth) were measured using a commercial plate reader. The MIC value is defmed as the lowest compound concentration inhibiting growth of the test organism.

[1] = 2-fold dilutions, overnight incubation, optical density readout
[2] = 2-fold dilutions, overnight incubation, optical density readout, read-out: MIC S.aureus

Structure (SMILES) | IC50 (E.faecalis PheRS) | MIC S.aureus (S.aureus; [1]) | MIC (S.aureus; read-out: MIC S.aureus, 2-fold dilutions, overnight incubation, optical density readout) | MIC (S.aureus; [2])
O=C(Nc1ccc(Cl)c(Cl)c1)C1C(c2ccccc2)OC23C(O)c4ccccc4C2OC(=O)C13 (single isomer, unassigned) [Example 1a] | 170 nM | 3.1 µg/mL (≈ 6.25 µM) |  | 
O=C(Nc1ccc(Cl)c(Cl)c1)C1C(c2ccccc2)NC23C(O)c4ccccc4C2OC(=O)C13 (single isomer, unassigned) [Example 3c] | 400 nM | 12.5 µg/mL (≈ 25.2 µM) |  | 
O=C(Nc1ccc(Cl)c(Cl)c1)C1C(c2ccccc2)OC23C(O)c4ccccc4C2OC(=O)C13 (single isomer, unassigned) [Example 1b] | 470 nM | 6.25 µg/mL (≈ 12.6 µM) |  | 
Cc1ccc(NC(=O)C2C(c3ccccc3)OC34C(O)c5ccccc5C3OC(=O)C24)cc1Cl (centres unmarked) [Example 4c] | 33200 nM | 25 µg/mL (≈ 52.5 µM) |  | 
O=C(Nc1ccc(Cl)c(Cl)c1)C1C(c2ccccc2)OC23C(=NO)c4ccccc4C2OC(=O)C13 (centres unmarked) [Example 5] |  |  | < 100 µg/mL | 
O=C(Nc1ccc(Cl)c(Cl)c1)C1C(c2ccccc2)OC23C(=O)c4ccccc4C2OC(=O)C13 (centres unmarked) [Example 2] | 3080 nM |  |  | > 100 µg/mL
O=C(Nc1ccc(Cl)c(Cl)c1)C1C(c2ccccc2)NC23C(O)c4ccccc4C2OC(=O)C13 (single isomer, unassigned) [Example 3b] | 4300 nM |  |  | 25 µg/mL (≈ 50.5 µM)
Cc1ccc(NC(=O)C2C(c3ccccc3)OC34C(O)c5ccccc5C3OC(=O)C24)cc1Cl (centres unmarked) [Example 4a] | 1480 nM | > 100 µg/mL |  | 
Cc1ccc(NC(=O)C2C(c3ccccc3)OC34C(O)c5ccccc5C3OC(=O)C24)cc1Cl (centres unmarked) [Example 4b] | 8230 nM | > 100 µg/mL |  | 
